Experimental data published in paper PMC6389962 (Nature Communications, 2019).
Where two headings read alike, the source gives them in different places. Starred links: 1 amine or outer side, 2 acyl side, 3 side chain; linkers in the order of their positions; H or OH if unused. Positions of bridges follow the written chain, without caps; N, C: chain ends. Residues, ends and D or L forms follow the SMILES beside them. Chains are numbered I, II in the order given. X2 = C[C@@H](CNC(=O)N[C@@H](C)CNC(=O)N[C@@H](C)CNC(=O)N[C@@H](C)CNC(=O)[*:2])NC(=O)NC[C@H](CCC(=O)O)NC(=O)NC[C@H](Cc1ccc(O)cc1)N[*:1]; X1 = C[C@@H](CNC(=O)N[C@@H](C)CNC(=O)[*:2])NC(=O)NC[C@H](C)N[*:1]

How the values were obtained:
[1] = system: normal mice (C57BL/6J); test: Blood glucose study in normal fed mice; assay type: in vivo, mouse; parameters: key to In vivo activity (indicator): + active; +++: + + + more active; conditions: for effect on blood glucose concentration / time after dosing for which the blood glucose decrease is preserved: normal fed C57BL/6J mice, n = 3, 5 μg per mouse (50 nmol kg−1) i.v.; for effect on blood glucose concentration: monitored 6 h; for In vivo activity (indicator): mice, 50 nmol kg−1 i.v.
Procedure: In the first study, we evaluated the effect of the analogues on the blood glucose concentration of normal mice (Fig. 3). The fed mice were treated with the analogues and their blood glucose concentration was monitored before and after dosing for 6 h. […] Indeed, a decrease of blood glucose concentration is observed after 30 min and the effect is preserved for 4 h after dosing.
Fig. 3 Blood glucose study in mice. a–c Blood glucose concentration in normal mice (C57BL/6J, male, 20–25 g, n = 3) before and after dosing: 5 μg per mouse (50 nmol kg^−1) i.v. Formulation: 20 μg mL^−1 in PBS 1×. The dosing was done at T0. Data are mean ± SEM. […] Source data are provided as a Source Data file
After the acclimation period (at least 5 days), mice (male C57BL/6J mice (Charles River laboratories) 8 weeks old, 20–25 g) were randomized into 10 groups (n = 3 per group) according to their body weight. They were acutely treated via i.v. route at 10 am (5 µg per mouse). Blood glucose was measured before dosing and at 30 min, 1, 2, 4, 6 h after dosing in fed conditions.

[2] = in vitro; conditions: mouse, plasma; for remaining at 20 min, 5 µM / remaining at 1 h, 5 µM: pH 7.4, % remaining analogue
Procedure: The oligomer was then diluted 1/50 with a solution of plasma/PBS pH 7.4 (1:1) to afford a final concentration of 5 µM and incubated at 37 °C (4 µL of the stock solution was diluted with 196 µL of plasma/PBS, pH 7.4, 1:1). Each compound was also incubated in the absence of plasma (196 µL of H2O/PBS, pH 7.4, 1:1). At the indicated time (20 min and 60 min) an aliquot of 70 µL was removed from each experimental reaction and pipetting into 175 µL of acetonitrile at 0 °C to quench the reaction (t = 0 min was determined using the reaction without plasma). The samples were frozen at –80 °C before analysis. The frozen samples were defrosted, stirred with a vortex 5 min and finally centrifuged 5 min at 16 °C (1500 × g). The supernatant was analysed by LC-MS. The time course of oligomer degradation was determined by integrating the area of the peak in the extracted ion chromatogram.
Supplementar y Figur e 2 : Mouse plasma degradation assay. […] Data are
mean ± SEM, n = 4. Source data are provided as a Source Data file (T able 2 tab).
Supplementar y Figur e 3.
Data are mean ± SEM, n = 3.
Source data are provided as a Source Data file […]

[3] = target: T1, mouse GLP-1 receptor (Mus musculus, UniProt O35659); conditions: for Potency (%), percentage of potency compare to GLP-1-G^2: cAMP production, from EC50
T1 sequence (O35659 22-463): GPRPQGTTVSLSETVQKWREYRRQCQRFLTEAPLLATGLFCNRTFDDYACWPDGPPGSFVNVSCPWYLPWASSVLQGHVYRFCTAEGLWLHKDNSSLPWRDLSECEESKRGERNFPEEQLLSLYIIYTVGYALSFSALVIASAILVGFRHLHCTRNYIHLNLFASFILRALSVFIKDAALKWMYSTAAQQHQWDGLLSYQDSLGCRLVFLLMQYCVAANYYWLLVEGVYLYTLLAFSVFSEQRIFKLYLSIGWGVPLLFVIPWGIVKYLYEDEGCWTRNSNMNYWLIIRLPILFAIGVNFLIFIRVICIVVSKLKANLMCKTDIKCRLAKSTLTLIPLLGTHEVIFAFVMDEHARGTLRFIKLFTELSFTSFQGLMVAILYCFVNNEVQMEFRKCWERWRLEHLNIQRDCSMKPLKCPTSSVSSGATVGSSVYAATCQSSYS

[4] = target: T1, mouse GLP-1 receptor; test: cell-based
[5] = NEP 24.11 degradation assay; conditions: NEP 24.11 (isolated enzyme), pH 8, % remaining analogue, NEP 24.11 20 μg mL−1, […], pH 8.0, 20 °C, HPLC; time 6 h; replicate 1
Procedure: Stock solutions of the oligomers were prepared at a concentration of 400 µM in a solution of 50 mM HEPES buffer, 50 mM NaCl, 0.05% Tween-80, pH 8.0. Stock solution of NEP 24.11 was prepared at a concentration of 100 µg mL^−1 in water. Stability of oligomers to NEP 24.11 was assessed by conducting protease reaction in a 96-well plates at 20 °C. […] Each compound was also incubated in the absence of the enzyme (12 µL of HEPES buffer and 38 µL of oligomer). […] A portion of the quenched reaction solution was analysed by HPLC. The time course of peptide degradation was determined by integrating the area of each peak in a series of HPLC traces.

[6] = system: fasted normal mice (C57BL/6J); test: Intraperitoneal glucose tolerance test (IPGTT) in fasted normal mice; assay type: in vivo, mouse; conditions: for AUC: IPGTT 5 min (Fig 4a), blood glucose AUC 0-120 min
Procedure: In a second study, an IPGTT was performed 30 min after i.v. injections of 1, 14 and the vehicle (Fig. 4b). […] A further IPGTT study was done with a glucose challenge after 2 h of the dosing to investigate the prolonged activity of hybrids 14, 22 and 23 (Fig. 4c).
Fig. 4 IPGTT studies in mice. a–d Intraperitoneal glucose tolerance test (IPGTT) at different time after dosing in fasted normal mice (C57BL/6J, male, 20–25 g). Dosage: 200 μg kg^−1 (50 nmol kg^−1) i.v. Formulation: 20 μg mL^−1 in PBS 1×. IPGTT: glucose 2 g kg^−1 i.p. at T0. a IPGTT after 5 min (n = 4). b IPGTT after 30 min (n = 6). c IPGTT after 2 h (n = 6). d IPGTT after 4 h (n = 3). Area under the curve (AUC) of the corresponding IPGTT curve. Data are mean ± SEM. […] Source data are provided as a Source Data file
After the acclimation period (at least 5 days), mice (male C57BL/6J mice (Charles River laboratories) 6 weeks old, 20–25 g) were randomized into groups according to their body weight. The mice were fasted for 6 h prior being acutely treated via i.v. route (5 µg per mouse i.v. (200 μg kg^−1, 50 nmol kg^−1)) formulated at 20 µg mL^−1 in PBS 1×. The IPGTTs were performed (glucose 2 g kg^−1 i.p.) 5 min, 30 min, 2 h or 4 h after dosing and blood glucose was measured at different time points after the glucose challenge.

[7] = read-out: Top (best-fit value), variable slope four-parameter fit, unconstrained, 14: experiment 1
[8] = fasted C57BL/6J mice, 200 μg kg−1 (50 nmol kg−1) i.v., glucose 2 g kg−1 i.p., n = 6

| Structure (SMILES) | effect on blood glucose concentration [1] | half-life ([2]; pH 7.4) [min] | remaining at 20 min, 5 µM [2] [%] | remaining at 1 h, 5 µM [2] [%] | LogEC50 (best-fit value) [3] | Potency (%), percentage of potency compare to GLP-1-G^2 [3] [%] | EC50 [4] [nM] | Emax [4, 7] [%] | In vivo activity (indicator) [1] | time after dosing for which the blood glucose decrease is preserved [1] [h] | activity in IPGTT 2 h after dosing [6, 8] | other results |
| --- | --- | --- | --- | --- | --- | --- | --- | --- | --- | --- | --- | --- |
| CC[C@H](C)[C@H](NC(=O)[C@H](Cc1ccccc1)NC(=O)[C@H](CCC(=O)O)NC(=O)[C@H](CCCCN)NC(=O)[C@H](C)NC(=O)[C@H](C)NC(=O)[C@H](CCC(N)=O)NC(=O)CNC(=O)[C@H](CCC(=O)O)NC(=O)[C@H](CC(C)C)NC(=O)[C@H](Cc1ccc(O)cc1)NC(=O)NC[C@H](C)NC(=O)NC[C@H](C)NC(=O)N[C@@H](CNC(=O)[C@H](CO)NC(=O)[C@@H](NC(=O)[C@H](Cc1ccccc1)NC(=O)[C@@H](NC(=O)CNC(=O)[C@H](CCC(=O)O)NC(=O)CNC(=O)[C@@H](N)Cc1c[nH]cn1)[C@@H](C)O)[C@@H](C)O)CC(=O)O)C(=O)N[C@@H](C)C(=O)N[C@@H](Cc1c[nH]c2ccccc12)C(=O)N[C@@H](CC(C)C)C(=O)N[C@H](C(=O)N[C@@H](CCCCN)C(=O)NCC(=O)N[C@@H](CCCNC(=N)N)C(=O)NCC(N)=O)C(C)C [compound 2, GG2[D^uαA^uA^u]^9-12] | showed no activity | 17 | 38 | 21.2 | -7.897 | 2 | 13 | 77.7 | – | – | – | remaining at 6 h, […] [5]: 39.2% |
| CC[C@H](C)[C@H](NC(=O)[C@H](Cc1ccccc1)NC(=O)NC[C@H](C)NC(=O)NC[C@H](C)NC(=O)NC[C@H](C)NC(=O)[C@H](CCC(N)=O)NC(=O)CNC(=O)[C@H](CCC(=O)O)NC(=O)[C@H](CC(C)C)NC(=O)[C@H](Cc1ccc(O)cc1)NC(=O)[C@H](CO)NC(=O)[C@H](CO)NC(=O)[C@@H](NC(=O)[C@H](CC(=O)O)NC(=O)[C@H](CO)NC(=O)[C@@H](NC(=O)[C@H](Cc1ccccc1)NC(=O)[C@@H](NC(=O)CNC(=O)[C@H](CCC(=O)O)NC(=O)CNC(=O)[C@@H](N)Cc1c[nH]cn1)[C@@H](C)O)[C@@H](C)O)C(C)C)C(=O)N[C@@H](C)C(=O)N[C@@H](Cc1c[nH]c2ccccc12)C(=O)N[C@@H](CC(C)C)C(=O)N[C@H](C(=O)N[C@@H](CCCCN)C(=O)NCC(=O)N[C@@H](CCCNC(=N)N)C(=O)NCC(N)=O)C(C)C [compound 14, GG2[A^uA^uA^u]^18-21] (I: H-HGEGTFTSDVSSYLEGQ / II: FIAWLVKGRG-NH2; linker I:C-II:N via X1) | showed an improved efficacy compare to the native peptide 1 | 38 | 66.9 | 30.5 | – | 6 | 4.1 | 103 | +++ | 4 | good control of the blood glucose concentration during the IPGTT | Emax ([4]; read-out: Top (best-fit value), fit with BOTTOM = 0%, 14: experiment 1): 116%; Emax ([4]; read-out: Top (best-fit value), fit with BOTTOM = 0%, 14 experiment 2): 117%; Emax ([4]; read-out: Top (best-fit value), fit with BOTTOM = 0%, 14 experiment 3): 100%; Emax ([4]; read-out: Top (best-fit value), fit with BOTTOM = 0%, 14 experiment 4): 116%; Emax ([4]; read-out: Top (best-fit value), variable slope four-parameter fit, unconstrained, 14 experiment 2): 116%; Emax ([4]; read-out: Top (best-fit value), variable slope four-parameter fit, unconstrained, 14 experiment 3): 99.8%; Emax ([4]; read-out: Top (best-fit value), variable slope four-parameter fit, unconstrained, 14 experiment 4): 119%; AUC ([6]; mean of n = 4, 2018-03-08): 16833 mg·min/dL; AUC ([6]; single animal, 1st of group): 18150 mg·min/dL; AUC ([6]; single animal, 2nd of group): 13233 mg·min/dL; AUC ([6]; single animal, 3rd of group): 18503 mg·min/dL; AUC ([6]; single animal, 4th of group): 17445 mg·min/dL; activity in IPGTT 4 h after dosing ([6]; fasted C57BL/6J mice, 200 μg kg−1 (50 nmol kg−1) i.v., glucose 2 g kg−1 i.p., n = 3): still active after 6 h of the treatment; activity in IPGTT 5 min after dosing ([6]; fasted C57BL/6J mice, 200 μg kg−1 (50 nmol kg−1) i.v., glucose 2 g kg−1 i.p., n = 4): both analogues were active; activity in IPGTT 30 min after dosing [6, 8]: demonstrated full activity |
| CC[C@H](C)[C@H](NC(=O)[C@H](Cc1ccccc1)NC(=O)NC[C@H](C)NC(=O)NC[C@H](C)NC(=O)NC[C@H](C)NC(=O)NC[C@H](C)NC(=O)NC[C@H](CCC(=O)O)NC(=O)NC[C@H](Cc1ccc(O)cc1)NC(=O)[C@H](Cc1ccc(O)cc1)NC(=O)[C@H](CO)NC(=O)[C@H](CO)NC(=O)[C@@H](NC(=O)[C@H](CC(=O)O)NC(=O)[C@H](CO)NC(=O)[C@@H](NC(=O)[C@H](Cc1ccccc1)NC(=O)[C@@H](NC(=O)CNC(=O)[C@H](CCC(=O)O)NC(=O)CNC(=O)[C@@H](N)Cc1c[nH]cn1)[C@@H](C)O)[C@@H](C)O)C(C)C)C(=O)N[C@@H](C)C(=O)N[C@@H](Cc1c[nH]c2ccccc12)C(=O)N[C@@H](CC(C)C)C(=O)N[C@H](C(=O)N[C@@H](CCCCN)C(=O)NCC(=O)N[C@@H](CCCNC(=N)N)C(=O)NCC(N)=O)C(C)C [compound 23, GG2[Y^uE^uA^uA^uA^uA^u]^14-21] (I: H-HGEGTFTSDVSSY / II: FIAWLVKGRG-NH2; linker I:C-II:N via X2) | showed an improved efficacy compare to the native peptide 1 | – | – | 24.8 | -8.466 | 7 | 3.4 | 100 | +++ | 4 | good control of the blood glucose concentration during the IPGTT | half-life at 5 µM ([2]; pH 7.4): 39 min |
